Test results reported in patent publication US6417195B1, “Isoquinoline derivatives and isoquinoline combinatorial libraries” (Lion Bioscience AG, priority 1999, dated 2002).

System: Streptococcus pyogenes
Experiment: Anti-microbial screen
Format: cell-based
Settings: growth at 4 hrs, OD 570 nm, Todd Hewitt Broth
Protocol: Streptococcus pyogenes (ATCC# 97-03 14289) were grown in Todd Hewitt Broth (THB) (Difco Laboratories #0492-17-6) overnight until they reached an optical density of (OD═0.636@ 570 nm) by reading 0.1 ml in a 96 well microtiter plate in a Molecular Devices Thermomax. This preparation was kept frozen as stocks in 30% v/v glycerol in 1.5 ml aliquots at −70° C. until use. Prior to experiments 1.5 ml aliquots were thawed and diluted into 50 ml THB. 200 ul of this dilution was added to 92 wells of microtiter plate. To three wells THB (200 ul) was added to serve as a blank and a sterility control. Test compounds in DMSO and appropriate concentrations of DMSO were added to Growth/Solvent Controls at 0 time. Plates were read at 0 time at 570 nm in the Molecular Devices plate reader to obtain compounds correction factors for insoluble or colored compounds. Plates were read again at 4 hrs.
Percent inhibition was calculated with the following formulae:
Color correct=(O.D. 0 hr−Blank 0 hr)−(Solvent Control 0 hr−Blank 0 hr)
% Inhibition=100−O.D. test compound 4 hr−Blank 4 hr−color correct
O.D. growth/solvent control 4 hr−Blank 4 hr

Row | Structure (SMILES) | % Inhibition [%]
1 | CN(C)CCN(CC(N)=O)C(=O)CCN1C(=O)c2ccccc2C(C(=O)NCCN2CCCC2)C1c1ccc(O)c(O)c1 (stereo not drawn) [Compound 2520-1] | 9
2 | CN(C)CCN(CC(N)=O)C(=O)CCN1C(=O)c2ccccc2C(C(=O)NC2CCC(C(C)(C)C)CC2)C1c1ccc(O)c(O)c1 (stereo not drawn) [Compound 2520-2] | 94
3 | CCCCN(CCCC)CCN(CC(N)=O)C(=O)CCN1C(=O)c2ccccc2C(C(=O)NCCN(CC)c2cccc(C)c2)C1c1ccc(O)c(O)c1 (stereo not drawn) [Compound 2520-721] | 86
4 | CCCCOCCCNC(=O)C1c2ccccc2C(=O)N(CCC(=O)N(CCN(CCCC)CCCC)CC(N)=O)C1c1ccc(O)c(O)c1 (stereo not drawn) [Compound 2520-722] | 58
5 | CCN1CCCC1CN(CC(N)=O)C(=O)CCN1C(=O)c2ccccc2C(C(=O)NCCCN2CCCCC2C)C1c1cccc([N+](=O)[O-])c1 (stereo not drawn) [Compound 2520-2341] | 104
6 | CCN(CCNC(=O)C1c2ccccc2C(=O)N(CCC(=O)N(CC(N)=O)Cc2ccccc2)C1c1ccc(N(C)C)cc1)c1cccc(C)c1 (stereo not drawn) [Compound 2520-3137] | 66
7 | CCCCOCCCNC(=O)C1c2ccccc2C(=O)N(CCC(=O)N(CC(N)=O)Cc2ccccc2)C1c1ccc(N(C)C)cc1 (stereo not drawn) [Compound 2520-3138] | 19
8 | CCOC(=O)CC(C)NC(=O)C1c2ccccc2C(=O)N(CCC(=O)N(CCN(C)C)CC(N)=O)C1c1cccc(Oc2ccccc2)c1 (stereo not drawn) [Compound 2520-4745] | 99
9 | C=CCNC(=O)C1c2ccccc2C(=O)N(CCC(=O)N(CCN(C)C)CC(N)=O)C1c1cccc(Oc2ccccc2)c1 (stereo not drawn) [Compound 2520-4746] | 100
10 | CCN(CCNC(=O)C1c2ccccc2C(=O)N(CCC(=O)N(CC(N)=O)NC(=O)OC)C1c1cc(C(F)(F)F)cc(C(F)(F)F)c1)c1cccc(C)c1 (stereo not drawn) [Compound 2520-5545] | 86
11 | CCCCOCCCNC(=O)C1c2ccccc2C(=O)N(CCC(=O)N(CC(N)=O)NC(=O)OC)C1c1cc(C(F)(F)F)cc(C(F)(F)F)c1 (stereo not drawn) [Compound 2520-5548] | 43
12 | CCN1CCCC1CN(CC(N)=O)C(=O)CCN1C(=O)c2ccccc2C(C(=O)N2CCN(Cc3ccccc3)CC2)C1c1ccc(-c2ccccc2)cc1 (stereo not drawn) [Compound 2520-6332] | 98
13 | CCN1CCCC1CN(CC(N)=O)C(=O)CCN1C(=O)c2ccccc2C(C(=O)N2CCN(C)CC2)C1c1ccc(-c2ccccc2)cc1 (stereo not drawn) [Compound 2520-6333] | 78
14 | CCN1CCCC1CN(CC(N)=O)C(=O)CCN1C(=O)c2ccccc2C(C(=O)NCCCN2CCCCC2C)C1c1ccc(N(C)C)cc1 (stereo not drawn) [Compound 2520-7125] | 100
15 | CCOC(=O)CCNC(=O)C1c2ccccc2C(=O)N(CCC(=O)N(CC(N)=O)CC2CCCN2CC)C1c1ccc(N(C)C)cc1 (stereo not drawn) [Compound 2520-7126] | 26
16 | CCN(CCNC(=O)C1c2ccccc2C(=O)N(CCC(=O)N(CC(N)=O)CC2CCCN2CC)C1c1ccc(SC)cc1)c1cccc(C)c1 (stereo not drawn) [Compound 2520-7921] | 100
17 | CCCCOCCCNC(=O)C1c2ccccc2C(=O)N(CCC(=O)N(CC(N)=O)CC2CCCN2CC)C1c1ccc(SC)cc1 (stereo not drawn) [Compound 2520-7922] | 87

Row | Structure (SMILES) | % Inhibition [%]
18 | CN(C)CCN(CC(N)=O)C(=O)c1ccc(CN2C(=O)c3ccccc3C(C(=O)NCCN3CCCC3)C2c2ccccc2)cc1 (stereo not drawn) [Compound 2530-1] | 44
19 | CN(C)CCN(CC(N)=O)C(=O)c1ccc(CN2C(=O)c3ccccc3C(C(=O)NCc3cccnc3)C2c2ccccc2)cc1 (stereo not drawn) [Compound 2530-2] | 51
20 | NC(=O)CN(CCN1CCCCC1)C(=O)c1ccc(CN2C(=O)c3ccccc3C(C(=O)NCCN3CCCC3)C2c2ccccc2)cc1 (stereo not drawn) [Compound 2530-865] | 20
21 | NC(=O)CN(CCN1CCCCC1)C(=O)c1ccc(CN2C(=O)c3ccccc3C(C(=O)NCc3cccnc3)C2c2ccccc2)cc1 (stereo not drawn) [Compound 2530-866] | 11
22 | CCCN(CC(N)=O)C(=O)C1CCC(CN2C(=O)c3ccccc3C(C(=O)NCCN3CCCC3)C2c2cccc(C)n2)CC1 (stereo not drawn) [Compound 2530-1537] | 4
23 | CCCN(CC(N)=O)C(=O)C1CCC(CN2C(=O)c3ccccc3C(C(=O)NCc3cccnc3)C2c2cccc(C)n2)CC1 (stereo not drawn) [Compound 2530-1538] | 15
24 | NC(=O)CN(CCN1CCOCC1)C(=O)c1ccc(CN2C(=O)c3ccccc3C3C(=O)N4CCN(Cc5ccccc5)c5c(-c6ccccc6)ccc(c54)C32)cc1 (stereo not drawn) [Compound 2530-2501] | 109
25 | CCN(CC)CCCC(C)NC(=O)C1c2ccccc2C(=O)N(Cc2ccc(C(=O)N(CC(N)=O)CC3CCCN3CC)cc2)C1c1ccc(O)cc1 (stereo not drawn) [Compound 2530-3185] | 4
26 | CCN1CCCC1CN(CC(N)=O)C(=O)c1ccc(CN2C(=O)c3ccccc3C(C(=O)NC3CCC(C(C)(C)C)CC3)C2c2ccc(O)cc2)cc1 (stereo not drawn) [Compound 2530-3186] | 101
27 | CCc1ccc(C2C(C(=O)NCCN(C)C)c3ccccc3C(=O)N2Cc2ccc(C(=O)N(CCOC)CC(N)=O)cc2)cc1 (stereo not drawn) [Compound 2530-4162] | 30
28 | CSc1ccc2c3c1C(Br)CCN3C(=O)C1c3ccccc3C(=O)N(Cc3ccc(C(=O)N(CCc4ccc(Cl)cc4Cl)CC(N)=O)cc3)C21 (stereo not drawn) [Compound 2530-4401] | 45
29 | CSc1ccc(C2C(C(=O)NCCN(C)C)c3ccccc3C(=O)N2Cc2ccc(C(=O)N(CCc3ccc(Cl)cc3Cl)CC(N)=O)cc2)cc1 (stereo not drawn) [Compound 2530-4402] | 96
30 | CC(C)(C)C1CCC(NC(=O)C2c3ccccc3C(=O)N(CC3CCC(C(=O)N(CCCn4ccnc4)CC(N)=O)CC3)C2c2ccccc2)CC1 (stereo not drawn) [Compound 2530-4818] | 61
31 | NC(=O)CN(CCCn1ccnc1)C(=O)C1CCC(CN2C(=O)c3ccccc3C3C(=O)N4CCC(N5CCCC5)c5cccc(c54)C32)CC1 (stereo not drawn) [Compound 2530-4819] | 20
32 | C=CCN(CC(N)=O)C(=O)c1ccc(CN2C(=O)c3ccccc3C3C(=O)N4CCOc5c(O)ccc(c54)C32)cc1 (stereo not drawn) [Compound 2530-6447] | 8
33 | C=CCN(CC(N)=O)C(=O)c1ccc(CN2C(=O)c3ccccc3C(C(=O)NCCCCCCCCCCCC)C2c2ccc(O)cc2)cc1 (stereo not drawn) [Compound 2530-6448] | 53
